Assay results published in PubChem BioAssay AID1963830 (Molecular Pharmacology Branch, DTP, NCI, 2024).

Tested on: 922993-354-T-J3-PDC complex spheroid viability
Experiment: Anticancer human tumor 922993-354-T-J3-PDC patient-derived endometrial carcinoma cell line growth inhibition [POLQ]
Details: for IC50: curve of first compound; for viability, T/C: stronger effect = lower value
Procedure: Multicellular complex tumor spheroid response to Polymerase (POL) inhibitors (novobiocin, ART-558, RP6685) in combination with a variety of drugs and investigational agents in selected tumor cell lines
The POL inhibitors (novobiocin, ART-558, and RP6685) were evaluated both individually and in combination with standard of care and investigational anticancer small molecules within a complex spheroid model of solid tumors. . Complex spheroids include a stromal component modeled by human endothelial cells (HUVEC) and fibroblasts modeled by human mesenchymal stem cells (MSCs). The concentration ranges selected for each drug and investigational agent were based upon clinically achievable concentrations if the clinical Cmax of the agent was known.
Compounds. The drugs and investigational agents: novobiocin (NSC847541), ART-558 (NSC835418), RP-6685 (NSC848927), peposertib (NSC802822), ceralasertib (NSC780249), elimusertib (NSC800525), camonsertib (NSC841442), AZD-1390 (NSC803789), olaparib (NSC753686), talazoparib (NSC767125), rucaparib (NSC756644), sotorasib (NSC818433), MRTX-1133 (NSC836407), SN-38 (NSC673596), topotecan (NSC609699), epotoside (NSC141540), doxorubicin (NSC123127), gemcitabine (NSC613327), 5-fluorouracil (NSC19893), paclitaxel (NSC125973), vemurafenib (NSC761431), MSA-2 (NSC828583), SN-011 (NSC837082), adavosertib (NSC754352), prexasertib (NSC758257), carboplatin (NSC241240) and oxaliplatin (NSC266046), were obtained from the National Cancer Institute (NCI) Developmental Therapeutics Program Chemical Repository (21). The FDA-approved anticancer drug set is available from the Developmental Therapeutics Program at https://dtp.cancer.gov/organization/dscb/obtaining/. […] The stock solutions were prepared in dimethyl sulfoxide (DMSO, Sigma-Aldrich, St. Louis, MO, cat. D2650), except for the platinum compounds which were prepared in saline (Quality Biological, Gaithersburg, MD, cat. 114-055-101), at 800-fold the tested concentration and stored at -70 degrees C prior to their use. All drugs and investigational agents were tested over a range starting from a high concentration at or near the clinical Cmax and decreasing in half-log increments. If the clinical Cmax for an agent had not been determined, the highest concentration tested was 10 microM, except for SN-38, which was tested at a high concentration of 1 microM.
Cell Culture. All cells were maintained in an incubator at 37 degrees C and 5% CO2 with 95% humidity. The PDC lines were cultured according to standard operating procedures established by the NCI PDMR (https://pdmr.cancer.gov). Table 3 of the manuscript, lists the cell lines along with the number of the three cell types plated to form the mct-spheroids and media for tumor cell growth. After thawing, all PDC lines, except 997537-175-T-J1-PDC and 415267-285-R-J2-PDC, were cultured in Matrigel-coated flasks prepared with a working solution of 1X Ham's F-12 nutrient mix, without supplementation (Thermo Fisher Scientific, cat. 11765054), 100 U/mL penicillin-streptomycin (Thermo Fisher Scientific, cat. 15140122), and 2.5% Matrigel (Corning Inc., Corning, NY, cat. 354248) for the first three passages. The two PDC lines 997537-175-T-J1-PDC and 415267-285-R-J2-PDC were cultured on uncoated flasks. The 857933-349-R-J2-PDC line was cultured in 6C/Colon 1B media containing advanced DMEM/F-12 (Thermo Fisher Scientific, cat. 12634028), 10 mM HEPES (Thermo Fisher Scientific, cat. 15630080), 1X GlutaMAX supplement (Thermo Fisher Scientific, cat. 35050061), 0.1 mg/mL primocin (InvivoGen, San Diego, CA, cat. ant-pm-2), 10% defined fetal bovine serum, heat inactivated (HyClone Laboratories Inc., Logan, UT, cat. SH30070.03HI), 50% L-WRN conditioned media (ATCC, cat. CRL-3276), 1.25 mM N-Acetyl-L-cysteine (Sigma-Aldrich, cat. A9165), 10 mM nicotinamide (Sigma-Aldrich, cat. N0636), 1X B-27 supplement (Thermo Fisher Scientific, cat. 17504044), 1X N-2 supplement (Thermo Fisher Scientific, cat. […]

[1] = second compound 0.0316 µM, first compound 0.0316 µM
[2] = second compound 0.0316 µM, first compound 0.1 µM
[3] = second compound 0.0316 µM, first compound 0.316 µM
[4] = second compound 0.0316 µM, first compound 1 µM
[5] = second compound 0.1 µM, first compound 0.0316 µM
[6] = second compound 0.1 µM, first compound 0.1 µM
[7] = second compound 0.1 µM, first compound 0.316 µM
[8] = second compound 0.1 µM, first compound 1 µM
[9] = second compound 0.316 µM, first compound 0.0316 µM
[10] = second compound 0.316 µM, first compound 0.1 µM
[11] = second compound 0.316 µM, first compound 0.316 µM
[12] = second compound 0.316 µM, first compound 1 µM
[13] = second compound 1 µM, first compound 0.0316 µM
[14] = second compound 1 µM, first compound 0.1 µM
[15] = second compound 1 µM, first compound 0.316 µM
[16] = second compound 1 µM, first compound 1 µM
[17] = second compound 3.16 µM, first compound 0.0316 µM
[18] = second compound 3.16 µM, first compound 0.1 µM
[19] = second compound 3.16 µM, first compound 0.316 µM
[20] = second compound 3.16 µM, first compound 1 µM
[21] = second compound 10 µM, first compound 0.0316 µM
[22] = second compound 10 µM, first compound 0.1 µM
[23] = second compound 10 µM, first compound 0.316 µM
[24] = second compound 10 µM, first compound 1 µM
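Further: spheroids exposed to the agents for one week.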
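Wherever viability, T/C is given: 100% = DMSO vehicle control wells.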

**Q.** With `C=CCn1c(=O)c2cnc(Nc3ccc(N4CCN(C)CC4)cc3)nc2n1-c1cccc(C(C)(C)O)n1` + Cc1cccc(N(C)C(=O)C2C(O)CCN2c2nc(C)cc(C(F)(F)F)c2C#N)c1 as the compound, how does the IC50 (second compound 0.0316 µM) read?
**A.** > 1 µM

**Q.** What about the IC50 (second compound 0.1 µM) of the same compound?
**A.** > 1 µM

**Q.** And the IC50 (second compound 0.316 µM)?
**A.** > 1 µM

**Q.** And the IC50 (second compound 1 µM)?
**A.** > 1 µM

**Q.** And the IC50 (second compound 3.16 µM)?
**A.** > 1 µM

**Q.** What about the IC50 (second compound 10 µM) of the same compound?
**A.** > 1 µM

**Q.** And the viability, T/C (second compound 0.0316 µM, first compound 0.00316 µM)?
**A.** 101%

**Q.** And the viability, T/C (second compound 0.0316 µM, first compound 0.01 µM)?
**A.** 105%

**Q.** What about the viability, T/C [1] of the same compound?
**A.** 102%

**Q.** What about the viability, T/C [2] of the same compound?
**A.** 101%

**Q.** And the viability, T/C [3]?
**A.** 105%

**Q.** What about the viability, T/C [4] of the same compound?
**A.** 102%

**Q.** And the viability, T/C (second compound 0.1 µM, first compound 0.00316 µM)?
**A.** 105%

**Q.** What about the viability, T/C (second compound 0.1 µM, first compound 0.01 µM) of the same compound?
**A.** 104%

**Q.** What about the viability, T/C [5] of the same compound?
**A.** 99.5%

**Q.** What about the viability, T/C [6] of the same compound?
**A.** 103%

**Q.** And the viability, T/C [7]?
**A.** 105%

**Q.** And the viability, T/C [8]?
**A.** 101%

**Q.** And the viability, T/C (second compound 0.316 µM, first compound 0.00316 µM)?
**A.** 103%

**Q.** What about the viability, T/C (second compound 0.316 µM, first compound 0.01 µM) of the same compound?
**A.** 106%

**Q.** And the viability, T/C [9]?
**A.** 98.1%

**Q.** What about the viability, T/C [10] of the same compound?
**A.** 104%

**Q.** What about the viability, T/C [11] of the same compound?
**A.** 104%

**Q.** What about the viability, T/C [12] of the same compound?
**A.** 103%

**Q.** And the viability, T/C (second compound 1 µM, first compound 0.00316 µM)?
**A.** 105%

**Q.** What about the viability, T/C (second compound 1 µM, first compound 0.01 µM) of the same compound?
**A.** 101%

**Q.** And the viability, T/C [13]?
**A.** 106%

**Q.** And the viability, T/C [14]?
**A.** 99.1%

**Q.** And the viability, T/C [15]?
**A.** 104%

**Q.** What about the viability, T/C [16] of the same compound?
**A.** 104%

**Q.** What about the viability, T/C (second compound 3.16 µM, first compound 0.00316 µM) of the same compound?
**A.** 99.9%

**Q.** What about the viability, T/C (second compound 3.16 µM, first compound 0.01 µM) of the same compound?
**A.** 101%

**Q.** And the viability, T/C [17]?
**A.** 100%

**Q.** And the viability, T/C [18]?
**A.** 101%

**Q.** What about the viability, T/C [19] of the same compound?
**A.** 104%

**Q.** And the viability, T/C [20]?
**A.** 99%

**Q.** What about the viability, T/C (second compound 10 µM, first compound 0.00316 µM) of the same compound?
**A.** 103%

**Q.** What about the viability, T/C (second compound 10 µM, first compound 0.01 µM) of the same compound?
**A.** 97.1%

**Q.** And the viability, T/C [21]?
**A.** 98.5%

**Q.** What about the viability, T/C [22] of the same compound?
**A.** 97.3%

**Q.** And the viability, T/C [23]?
**A.** 103%

**Q.** What about the viability, T/C [24] of the same compound?
**A.** 94.2%

**Q.** For `CCc1cc2c(N3CCc4c(cc(Cn5ccnc5)cc4-c4cn(C)nc4C(F)(F)F)C3=O)ccnc2c(OC)n1` + COC1C(OC(N)=O)C(O)C(Oc2ccc3c(O)c(NC(=O)c4ccc(O)c(CC=C(C)C)c4)c(=O)oc3c2C)OC1(C)C, which IC50 (second compound 0.0316 µM) is on record?
**A.** > 10 µM

**Q.** And the IC50 (second compound 0.1 µM)?
**A.** > 10 µM

**Q.** And the IC50 (second compound 0.316 µM)?
**A.** > 10 µM

**Q.** What about the IC50 (second compound 1 µM) of the same compound?
**A.** > 10 µM

**Q.** What about the IC50 (second compound 3.16 µM) of the same compound?
**A.** > 10 µM

**Q.** And the IC50 (second compound 10 µM)?
**A.** > 10 µM

**Q.** What about the viability, T/C [1] of the same compound?
**A.** 104%

**Q.** What about the viability, T/C [2] of the same compound?
**A.** 110%

**Q.** What about the viability, T/C [3] of the same compound?
**A.** 101%

**Q.** And the viability, T/C [4]?
**A.** 102%

**Q.** What about the viability, T/C (second compound 0.0316 µM, first compound 3.16 µM) of the same compound?
**A.** 96.2%

**Q.** And the viability, T/C (second compound 0.0316 µM, first compound 10 µM)?
**A.** 71.5%

**Q.** And the viability, T/C [5]?
**A.** 108%

**Q.** What about the viability, T/C [6] of the same compound?
**A.** 102%

**Q.** What about the viability, T/C [7] of the same compound?
**A.** 97.9%

**Q.** And the viability, T/C [8]?
**A.** 109%

**Q.** What about the viability, T/C (second compound 0.1 µM, first compound 3.16 µM) of the same compound?
**A.** 97.1%

**Q.** And the viability, T/C (second compound 0.1 µM, first compound 10 µM)?
**A.** 79.8%

**Q.** And the viability, T/C [9]?
**A.** 104%

**Q.** And the viability, T/C [10]?
**A.** 101%

**Q.** What about the viability, T/C [11] of the same compound?
**A.** 102%

**Q.** And the viability, T/C [12]?
**A.** 97.3%

**Q.** What about the viability, T/C (second compound 0.316 µM, first compound 3.16 µM) of the same compound?
**A.** 86.9%

**Q.** What about the viability, T/C (second compound 0.316 µM, first compound 10 µM) of the same compound?
**A.** 79.6%

**Q.** And the viability, T/C [13]?
**A.** 97.4%

**Q.** And the viability, T/C [14]?
**A.** 101%

**Q.** And the viability, T/C [15]?
**A.** 104%

**Q.** And the viability, T/C [16]?
**A.** 101%

**Q.** What about the viability, T/C (second compound 1 µM, first compound 3.16 µM) of the same compound?
**A.** 90%

**Q.** And the viability, T/C (second compound 1 µM, first compound 10 µM)?
**A.** 76.6%

**Q.** And the viability, T/C [17]?
**A.** 88.1%

**Q.** And the viability, T/C [18]?
**A.** 96.5%

**Q.** And the viability, T/C [19]?
**A.** 100%

**Q.** And the viability, T/C [20]?
**A.** 85.2%

**Q.** And the viability, T/C (second compound 3.16 µM, first compound 3.16 µM)?
**A.** 89.2%

**Q.** What about the viability, T/C (second compound 3.16 µM, first compound 10 µM) of the same compound?
**A.** 70.4%

**Q.** What about the viability, T/C [21] of the same compound?
**A.** 84%

**Q.** What about the viability, T/C [22] of the same compound?
**A.** 82.8%

**Q.** What about the viability, T/C [23] of the same compound?
**A.** 105%

**Q.** And the viability, T/C [24]?
**A.** 91%

**Q.** What about the viability, T/C (second compound 10 µM, first compound 3.16 µM) of the same compound?
**A.** 93.9%

**Q.** What about the viability, T/C (second compound 10 µM, first compound 10 µM) of the same compound?
**A.** 68.3%
